Results from US11708369B2, “Heteroaromatic compounds having activity against RSV” (Janssen Sciences Ireland Unlimited Company, priority 2018, dated 2023).

Experiments:
rgRSV224 virus = assay: Antiviral activity: rgRSV224 (GFP) replication in HeLa cells; conditions: human respiratory syncytial virus, 72 h, read-out: RSV HELA EC50
Procedure: Black 384-well clear-bottom microtiter plates (Corning, Amsterdam, The Netherlands) were filled via acoustic drop ejection using the echo liquid handler (Labcyte, Sunnyvale, Calif.). 200 nL of compound stock solutions (100% DMSO) were transferred to the assay plates. 9 serial 4-fold dilutions of compound were made, creating per quadrant the same compound concentration. The assay was initiated by adding 10 μL of culture medium to each well (RPMI medium without phenol red, 10% FBS-heat inactivated, 0.04% gentamycin (50 mg/mL). All addition steps are done by using a multidrop dispenser (Thermo Scientific, Erembodegem, Belgium). Next, rgRSV224 virus (MOI=1) diluted in culture medium was added to the plates. rgRSV224 virus is an engineered virus that includes an additional GFP gene (Hallak L K, Spillmann D, Collins P L, Peeples M E. Glycosaminoglycan sulfation requirements for respiratory syncytial virus infection; Journal of virology (2000), 74(22), 10508-13) and was in-licensed from the NIH (Bethesda, Md., USA). Finally, 20 μL of a HeLa cell suspension (3,000 cells/well) were plated. Medium, virus- and mock-infected controls were included in each test. The wells contain 0.05% DMSO per volume. Cells were incubated at 37° C. in a 5% CO2 atmosphere. Three days post-virus exposure, viral replication was quantified by measuring GFP expression in the cells by an in house developed MSM laser microscope (Tibotec, Beerse, Belgium). The EC50 was defined as the 50% inhibitory concentration for GFP expression. In parallel, compounds were incubated for three days in a set of white 384-well microtiter plates (Corning) and the cytotoxicity of compounds in HeLa cells was determined by measuring the ATP content of the cells using the ATPlite kit (Perkin Elmer, Zaventem, Belgium) according to the manufacturer's instructions. The CC50 was defined as the 50% concentration for cytotoxicity.

in vitro = conditions: human
Procedure: The wells contain 0.05% DMSO per volume. Cells were incubated at 37° C. in a 5% CO2 atmosphere. […] In parallel, compounds were incubated for three days in a set of white 384-well microtiter plates (Corning) and the cytotoxicity of compounds in HeLa cells was determined by measuring the ATP content of the cells using the ATPlite kit (Perkin Elmer, Zaventem, Belgium) according to the manufacturer's instructions. The CC50 was defined as the 50% concentration for cytotoxicity.

Structure (SMILES)	EC50 (rgRSV224 virus)	CC50 at 3 days (in vitro)
C[C@@H]1c2ccccc2CCN1C(=O)c1cc(C2CC2)n2c(F)c(-c3ccc([C@@H]4C[C@H]4C(=O)O)cc3F)nc2n1 (mixture of isomers) [Compound 25, trans-2-(4-{5-cyclopropyl-3-fluoro-7-[(1R)-1-methyl-1,2,3,4-tetrahydroisoquinoline-2-carbonyl]imidazo[1,2-a]pyrimidin-2-yl}-3-fluorophenyl)cyclopropane-1-carboxylic Acid]	0.112 µM	22.3 µM
C[C@@H]1c2ccccc2CCN1C(=O)c1cc(C2CC2)n2c(F)c(-c3ccc([C@H]4C[C@H]4C(=O)O)cc3F)nc2n1 (mixture of isomers) [Compound 26, cis-2-(4-{5-cyclopropyl-3-fluoro-7-[(1R)-1-methyl-1,2,3,4-tetrahydroisoquinoline-2-carbonyl]imidazo[1,2-a]pyrimidin-2-yl}-3-fluorophenyl)cyclopropane-1-carboxylic Acid]	3.42 µM	77.2 µM
CCc1cc(C(=O)N2CCc3ccccc3[C@H]2C)cc2cc(-c3ccc(C4C[C@H]4C(=O)O)cc3F)nn12 (relative stereo) [Compound 4, Trans-2-(4-{7-ethyl-5-[(1R)-1-methyl-1,2,3,4-tetrahydroisoquinoline-2-carbonyl]pyrazolo[1,5-a]pyridin-2-yl}-3-fluorophenyl)cyclopropane-1-carboxylic Acid]	0.219 µM	57.6 µM
CCc1cc(C(=O)N2CCc3ccccc3[C@H]2C)c(OC)c2cc(-c3ccc(C4C[C@H]4C(=O)O)cc3F)nn12 (relative stereo) [Compound 5, trans-2-(4-{7-Ethyl-4-methoxy-5-[(1R)-1-methyl-1,2,3,4-tetrahydroisoquinoline-2-carbonyl]pyrazolo[1,5-a]pyridin-2-yl}-3-fluorophenyl)cyclopropane-1-carboxylic Acid]	1.7 µM	47.2 µM
C[C@@H]1c2ccccc2CCN1C(=O)c1cc(C2CC2)n2nc(-c3ccc(C4C[C@H]4C(=O)O)cc3F)cc2c1F (relative stereo) [Compound 6, trans-2-(4-{7-Cyclopropyl-4-fluoro-5-[(1R)-1-methyl-1,2,3,4-tetrahydroisoquinoline-2-carbonyl]pyrazolo[1,5-a]pyridin-2-yl}-3-fluorophenyl)cyclopropane-1-carboxylic Acid]	0.09 µM	50.2 µM
C[C@@H]1c2ccccc2CCN1C(=O)c1cc(C2CC2)n2nc(-c3ccc(C4C[C@H]4C(=O)O)cc3F)nc2c1 (relative stereo) [Compound 16, trans-2-(4-{5-Cyclopropyl-7-[(1R)-1-methyl-1,2,3,4-tetrahydroisoquinoline-2-carbonyl]-[1,2,4]triazolo[1,5-a]pyridin-2-yl}-3-fluorophenyl)cyclopropane-1-carboxylic Acid]	0.182 µM	79.4 µM
C[C@@H]1c2ccccc2CCN1C(=O)c1cc(C2CC2)n2nc(-c3ccc(C4C[C@@H]4C(=O)O)cc3F)nc2c1 (relative stereo) [Compound 17, cis-2-(4-{5-Cyclopropyl-7-[(1R)-1-methyl-1,2,3,4-tetrahydroisoquinoline-2-carbonyl]-[1,2,4]triazolo[1,5-a]pyridin-2-yl}-3-fluorophenyl)cyclopropane-1-carboxylic Acid]	2.01 µM	> 100 µM
C[C@@H]1c2ccccc2CCN1C(=O)c1cc(C2CC2)n2nc(-c3ccc(C4C[C@H]4C(N)=O)cc3F)nc2c1 (relative stereo) [Compound 18, trans-2-(4-{5-Cyclopropyl-7-[(1R)-1-methyl-1,2,3,4-tetrahydroisoquinoline-2-carbonyl]-[1,2,4]triazolo[1,5-a]pyridin-2-yl}-3-fluorophenyl)cyclopropane-1-carboxamide]	0.178 µM	47.9 µM
C[C@@H]1c2ccccc2CCN1C(=O)c1cc(C2CC2)n2cc(-c3ccc(C4C[C@H]4C(=O)O)cc3F)nc2n1 (relative stereo) [Compound 24, trans-2-(4-{5-Cyclopropyl-7-[(1R)-1-methyl-1,2,3,4-tetrahydroisoquinoline-2-carbonyl]imidazo[1,2-a]pyrimidin-2-yl}-3-fluorophenyl)cyclopropane-1-carboxylic Acid]	0.105 µM	69.7 µM
CCc1cc(C(=O)N2CCc3ccccc3[C@H]2C)cc2cc(-c3ccc([C@H]4C[C@@H]4C(=O)O)cc3F)cn12 [Compound 1, (1S,2S)-2-(4-{5-Ethyl-7-[(1R)-1-methyl-1,2,3,4-tetrahydroisoquinoline-2-carbonyl]indolizin-2-yl}-3-fluorophenyl)cyclopropane-1-carboxylic Acid]	0.195 µM	45.1 µM
CCc1cc(C(=O)N2CCc3ccccc3[C@H]2C)cc2cc(-c3ccc([C@H]4C[C@@H]4C(N)=O)cc3F)cn12 [Compound 2]	0.344 µM	52.7 µM
CCc1cc(C(=O)N2CCc3ccccc3[C@H]2C)cc2cc(-c3ccc(N4CC[C@H](C(=O)O)C4)cc3F)cn12 [Compound 3, (3S)-1-(4-{5-Ethyl-7-[(1R)-1-methyl-1,2,3,4-tetrahydroisoquinoline-2-carbonyl]indolizin-2-yl}-3-fluorophenyl)pyrrolidine-3-carboxylic Acid]	0.218 µM	44 µM
C[C@@H]1c2ccccc2CCN1C(=O)c1cc(C2CC2)n2nc(-c3ccc(N4CC[C@H](C(=O)O)C4)cc3F)cc2c1 [Compound 7, (3S)-1-(4-{7-Cyclopropyl-5-[(1R)-1-methyl-1,2,3,4-tetrahydroisoquinoline-2-carbonyl]pyrazolo[1,5-a]pyridin-2-yl}-3-fluorophenyl)pyrrolidine-3-carboxylic Acid]	0.064 µM	48 µM
C[C@@H]1c2ccccc2CCN1C(=O)c1cc(C2CC2)n2nc(-c3ccc(N4CC[C@H](C(N)=O)C4)cc3F)cc2c1 [Compound 8, (3S)-1-(4-{7-Cyclopropyl-5-[(1R)-1-methyl-1,2,3,4-tetrahydroisoquinoline-2-carbonyl]pyrazolo[1,5-a]pyridin-2-yl}-3-fluorophenyl)pyrrolidine-3-carboxamide]	0.054 µM	53.4 µM
CCc1cc(C(=O)N2CCc3ccccc3[C@H]2C)c(C)c2cc(-c3ccc(N4CC[C@H](C(=O)O)C4)cc3F)nn12 [Compound 9, (3S)-1-(4-{7-Ethyl-4-methyl-5-[(1R)-1-methyl-1,2,3,4-tetrahydroisoquinoline-2-carbonyl]pyrazolo[1,5-a]pyridin-2-yl}-3-fluorophenyl)pyrrolidine-3-carboxylic Acid]	0.596 µM	50.6 µM
C[C@@H]1c2ccccc2CCN1C(=O)c1cc(C2CC2)n2nc(-c3ccc(N4CC[C@H](C(N)=O)C4)cc3F)cc2c1F [Compound 10, (3S)-1-(4-{7-Cyclopropyl-4-fluoro-5-[(1R)-1-methyl-1,2,3,4-tetrahydroisoquinoline-2-carbonyl]pyrazolo[1,5-a]pyridin-2-yl}-3-fluorophenyl)pyrrolidine-3-carboxamide]	0.062 µM	40.4 µM
C[C@@H]1c2ccccc2CCN1C(=O)c1cc(C2CC2)n2nc(-c3ccc(N4CC[C@H](C(=O)O)C4)cc3F)nc2c1 [Compound 19, (3S)-1-(4-{5-Cyclopropyl-7-[(1R)-1-methyl-1,2,3,4-tetrahydroisoquinoline-2-carbonyl]-[1,2,4]triazolo[1,5-a]pyridin-2-yl}-3-fluorophenyl)pyrrolidine-3-carboxylic Acid]	0.1 µM	60.9 µM
C[C@@H]1c2ccccc2CCN1C(=O)c1cc(C2CC2)n2nc(-c3ccc(N4CC[C@H](C(N)=O)C4)cc3F)nc2c1 [Compound 20, (3S)-1-(4-{5-Cyclopropyl-7-[(1R)-1-methyl-1,2,3,4-tetrahydroisoquinoline-2-carbonyl]-[1,2,4]triazolo[1,5-a]pyridin-2-yl}-3-fluorophenyl)pyrrolidine-3-carboxamide]	0.102 µM	45.6 µM
C[C@@H]1c2ccccc2CCN1C(=O)c1cc2cc(-c3ccc(N4CC[C@H](C(=O)O)C4)cc3F)nn2c(C2CC2)n1 [Compound 21, (3S)-1-(4-{7-Cyclopropyl-5-[(1R)-1-methyl-1,2,3,4-tetrahydroisoquinoline-2-carbonyl]pyrazolo[1,5-c]pyrimidin-2-yl}-3-fluorophenyl)pyrrolidine-3-carboxylic Acid]	0.564 µM	29.8 µM
C[C@@H]1c2ccccc2CCN1C(=O)c1cc2cc(-c3ccc(N4CC[C@H](C(N)=O)C4)cc3F)nn2c(C2CC2)n1 [Compound 22, (3S)-1-(4-{7-Cyclopropyl-5-[(1R)-1-methyl-1,2,3,4-tetrahydroisoquinoline-2-carbonyl]pyrazolo[1,5-c]pyrimidin-2-yl}-3-fluorophenyl)pyrrolidine-3-carboxamide]	0.87 µM	> 100 µM
CNC(=O)[C@H]1CCN(c2ccc(-c3cc4cc(C(=O)N5CCc6ccccc6[C@H]5C)nc(C5CC5)n4n3)c(F)c2)C1 [Compound 23, (3S)-1-(4-{7-Cyclopropyl-5-[(1R)-1-methyl-1,2,3,4-tetrahydroisoquinoline-2-carbonyl]pyrazolo[1,5-c]pyrimidin-2-yl}-3-fluorophenyl)-N-methylpyrrolidine-3-carboxamide]	0.882 µM	> 100 µM
C[C@@H]1c2ccccc2CCN1C(=O)c1cc(C2CC2)n2cc(-c3ccc(N4CC[C@H](C(=O)O)C4)cc3F)nc2n1 [Compound 27, (3S)-1-(4-{5-Cyclopropyl-7-[(1R)-1-methyl-1,2,3,4-tetrahydroisoquinoline-2-carbonyl]imidazo[1,2-a]pyrimidin-2-yl}-3-fluorophenyl)pyrrolidine-3-carboxylic Acid]	0.159 µM	40.4 µM
C[C@@H]1c2ccccc2CCN1C(=O)c1cc(C2CC2)n2cc(-c3ccc(N4CC[C@H](C(N)=O)C4)cc3F)nc2n1 [Compound 28, (3S)-1-(4-{5-Cyclopropyl-7-[(1R)-1-methyl-1,2,3,4-tetrahydroisoquinoline-2-carbonyl]imidazo[1,2-a]pyrimidin-2-yl}-3-fluorophenyl)pyrrolidine-3-carboxamide]	0.112 µM	22.3 µM
